According to PubChem BioAssay AID256 (DTP/NCI, 2004):
Where “and” joins values, the source holds several entries; their conditions need not be identical. Equal values may be shown once. Inconclusive results and toxic doses are left out. Rule for the calls: active = survival T/C of 150% or more; inactive = T/C below 125% in these data.

Tested on: CD2F1 mice, L1210 leukemia ip, survival T/C
Assay: NCI In Vivo Anticancer Drug Screen. Data for tumor model L1210 Leukemia (intraperitoneal) in CD2F1 (CDF1) mice
Conditions: higher = longer survival
How it was run: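 Tumor-bearing mice (transplanted tumor) were split into treated and vehicle control groups, and the measured endpoint of each treated group was divided by that of its vehicle controls.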

[1] = endpoint: mean survival time, dose: 100.0 mg/kg/injection, schedule: Q01DX009 (ip), vehicle: saline with Tween-80
[2] = endpoint: mean survival time, dose: 200.0 mg/kg/injection, schedule: Q01DX009 (ip), vehicle: saline with Tween-80
[3] = endpoint: mean survival time, dose: 400.0 mg/kg/injection, schedule: Q01DX009 (ip), vehicle: saline with Tween-80
[4] = endpoint: mean survival time, dose: 50.0 mg/kg/injection, schedule: Q04DX002 (ip), vehicle: saline with Tween-80
[5] = endpoint: mean survival time, dose: 100.0 mg/kg/injection, schedule: Q04DX002 (ip), vehicle: saline with Tween-80
[6] = endpoint: mean survival time, dose: 200.0 mg/kg/injection, schedule: Q04DX002 (ip), vehicle: saline with Tween-80
[7] = endpoint: mean survival time, dose: 100.0 mg/kg/injection, schedule: Q01DX001 (ip), vehicle: saline with Tween-80
[8] = endpoint: mean survival time, dose: 200.0 mg/kg/injection, schedule: Q01DX001 (ip), vehicle: saline with Tween-80
[9] = endpoint: mean survival time, dose: 400.0 mg/kg/injection, schedule: Q01DX001 (ip), vehicle: saline with Tween-80
[10] = endpoint: mean survival time, dose: 100.0 mg/kg/injection, schedule: Q04DX003 (ip), vehicle: saline with Tween-80
[11] = endpoint: mean survival time, dose: 200.0 mg/kg/injection, schedule: Q04DX003 (ip), vehicle: saline with Tween-80
[12] = endpoint: mean survival time, dose: 400.0 mg/kg/injection, schedule: Q04DX003 (ip), vehicle: saline with Tween-80
[13] = endpoint: mean survival time, dose: 50.0 mg/kg/injection, schedule: Q01DX009 (ip), vehicle: saline with Tween-80
[14] = endpoint: mean survival time, dose: 25.0 mg/kg/injection, schedule: Q01DX005 (ip), vehicle: water
[15] = endpoint: mean survival time, dose: 50.0 mg/kg/injection, schedule: Q01DX005 (ip), vehicle: water
[16] = endpoint: mean survival time, dose: 100.0 mg/kg/injection, schedule: Q01DX005 (ip), vehicle: water
[17] = endpoint: mean survival time, dose: 200.0 mg/kg/injection, schedule: Q01DX005 (ip), vehicle: water
[18] = endpoint: mean survival time, dose: 25.0 mg/kg/injection, schedule: Q01DX009 (ip), vehicle: saline with Tween-80
[19] = endpoint: mean survival time, dose: 400.0 mg/kg/injection, schedule: Q04DX002 (ip), vehicle: saline with Tween-80

Measured: T/C

FC(F)(F)c1cccc([PH+](c2cccc(C(F)(F)F)c2)c2cccc(C(F)(F)F)c2)c1.FC(F)(F)c1cccc([PH+](c2cccc(C(F)(F)F)c2)c2cccc(C(F)(F)F)c2)c1.[Cl][Hg][Cl]
inactive: endpoint: mean survival time, dose: 12.5 mg/kg/injection, schedule: Q01DX009 (ip), vehicle: Klucel (hydroxypropylcellulose) (HPC) 101 % of control | endpoint: mean survival time, dose: 25.0 mg/kg/injection, schedule: Q01DX009 (ip), vehicle: Klucel (hydroxypropylcellulose) (HPC) 108 % of control | endpoint: mean survival time, dose: 50.0 mg/kg/injection, schedule: Q01DX009 (ip), vehicle: Klucel (hydroxypropylcellulose) (HPC) 89 % of control

CSc1ccc(NC=O)cc1
inactive: endpoint: mean survival time, dose: 75.0 mg/kg/injection, schedule: Q01DX001 (ip), vehicle: saline 98 % of control | endpoint: mean survival time, dose: 150.0 mg/kg/injection, schedule: Q01DX001 (ip), vehicle: saline 100 % of control | endpoint: mean survival time, dose: 300.0 mg/kg/injection, schedule: Q01DX001 (ip), vehicle: saline 100 % of control

O=C(Nc1cc(Cl)c(I)c(Cl)c1)C(F)(F)F
inactive: endpoint: mean survival time, dose: 100.0 mg/kg/injection, schedule: Q01DX001 (ip), vehicle: saline 98 % of control | endpoint: mean survival time, dose: 200.0 mg/kg/injection, schedule: Q01DX001 (ip), vehicle: saline 101 % of control | endpoint: mean survival time, dose: 400.0 mg/kg/injection, schedule: Q01DX001 (ip), vehicle: saline 98 % of control

COc1ccc(N=C/C=C/c2ccccc2)cc1
inactive: [1] 97 % of control | endpoint: mean survival time, dose: 100.0 mg/kg/injection, schedule: Q04DX003 (ip), vehicle: saline sonified 96 % of control | [2] 89 % of control | endpoint: mean survival time, dose: 200.0 mg/kg/injection, schedule: Q04DX003 (ip), vehicle: saline sonified 103 % of control | [3] 90 % of control | endpoint: mean survival time, dose: 400.0 mg/kg/injection, schedule: Q04DX003 (ip), vehicle: saline sonified 97 % of control

CCOC(=O)C1(Cc2ccccc2)SCCCS1
inactive: [4] 105 % of control | [5] 105 % of control | [6] 105 % of control

CN(C)CCOCCOc1ccc(C(C)(C)CC(C)(C)C)cc1
inactive: endpoint: mean survival time, dose: 1.5 mg/kg/injection, schedule: Q01DX009 (ip), vehicle: saline with Tween-80 105 % of control | endpoint: mean survival time, dose: 3.0 mg/kg/injection, schedule: Q01DX009 (ip), vehicle: saline with Tween-80 97 % of control | endpoint: mean survival time, dose: 6.0 mg/kg/injection, schedule: Q01DX009 (ip), vehicle: saline with Tween-80 100 % of control

O=C(O)CNC1CCCC1
inactive: [7] 97 % of control | [8] 100 % of control | [9] 93 % of control

NC(=O)N/N=C1\CC(S(=O)(=O)O)NC(=O)N1 (centres undefined)
inactive: [4] 98 % of control | [5] 95 % of control | [6] 95 % of control

CCOC(=O)CC1c2nc3ccccc3cc2CN1C(=O)CCOC(C)=O (centres undefined)
inactive: [1] 95 % of control | [10] 104 % of control | [2] 92 % of control | [11] 100 % of control | [3] 97 % of control | [12] 97 % of control

COC(=O)c1ncn(C2OC(COC(=O)c3ccccc3)C(OC(=O)c3ccccc3)C2OC(=O)c2ccccc2)c1C(=O)OC (centres undefined)
inactive: endpoint: median survival time, dose: 8.75 mg/kg/injection, schedule: Q01DX005 (ip), vehicle: distilled water + Tween-80 93 % of control | endpoint: median survival time, dose: 12.5 mg/kg/injection, schedule: Q01DX005 (ip), vehicle: distilled water + Tween-80 97 % of control | endpoint: median survival time, dose: 25.0 mg/kg/injection, schedule: Q01DX005 (ip), vehicle: distilled water + Tween-80 90 % of control | endpoint: median survival time, dose: 35.0 mg/kg/injection, schedule: Q01DX005 (ip), vehicle: distilled water + Tween-80 103 % of control | endpoint: median survival time, dose: 50.0 mg/kg/injection, schedule: Q01DX005 (ip), vehicle: distilled water + Tween-80 88 % of control | endpoint: median survival time, dose: 100.0 mg/kg/injection, schedule: Q01DX005 (ip), vehicle: distilled water + Tween-80 92 % of control | endpoint: median survival time, dose: 140.0 mg/kg/injection, schedule: Q01DX005 (ip), vehicle: distilled water + Tween-80 89 % of control | endpoint: median survival time, dose: 200.0 mg/kg/injection, schedule: Q01DX005 (ip), vehicle: distilled water + Tween-80 97 % of control

CCOC(=O)C(C#N)c1ccccc1 (centres undefined)
inactive: [5] 94 % of control | [6] 94 % of control

CC(C)(C)ONC(=O)c1ccccc1Sc1ccccc1
inactive: [1] 101 % of control | [2] 98 % of control | [3] 97 % of control

NC(=O)/C(=N/O)c1ccccc1
inactive: [10] 104 % of control | [11] 106 % of control | [12] 102 % of control

CCCC/C=C\C(=O)O
inactive: [13] 102 % of control | [1] 102 % of control | [2] 98 % of control

Cc1ccc(NC(=O)c2ccc(Cl)cc2)c(Br)c1
inactive: [10] 103 % of control | [11] 105 % of control | [12] 97 % of control

CCOC(=O)CCCSc1nn(C2OC(CO)C(O)C2O)c(=O)[nH]c1=O (centres undefined)
inactive: endpoint: mean survival time, dose: 12.5 mg/kg/injection, schedule: Q01DX005 (ip), vehicle: water 101 % of control | [14] 101 % of control | [15] 101 % of control | [16] 98 % of control | [17] 104 % of control

COC(=O)C(C)C(C)(O)C(C)(C)C (centres undefined)
inactive: [18] 100 % of control | endpoint: mean survival time, dose: 25.0 mg/kg/injection, schedule: Q04DX003 (ip), vehicle: saline 103 % of control | [13] 101 % of control | endpoint: mean survival time, dose: 50.0 mg/kg/injection, schedule: Q04DX003 (ip), vehicle: saline 103 % of control | [1] 102 % of control | endpoint: mean survival time, dose: 100.0 mg/kg/injection, schedule: Q04DX003 (ip), vehicle: saline 98 % of control

O=C(Nc1ccc(CCO)cc1)Nc1ccc(F)c([N+](=O)[O-])c1
inactive: [7] 98 % of control | [1] 93 % of control | [10] 101 % of control | [8] 96 % of control | [2] 94 % of control | [11] 98 % of control | [9] 92 % of control | [3] 93 % of control | [12] 102 % of control

CCOc1ccccc1Nc1cc(=O)[nH]c(=O)[nH]1
inactive: [7] 100 % of control | [8] 97 % of control | [9] 92 % of control

Cc1nc(C(=O)O)c(C)c(=O)[nH]1
inactive: [14] 98 % of control | [15] 104 % of control | [16] 89 % of control | [17] 87 % of control

CCN(CC)C(=S)S
inactive: endpoint: mean survival time, dose: 100.0 mg/kg/injection, schedule: Q04DX003 (ip), vehicle: other 94 % of control | endpoint: mean survival time, dose: 200.0 mg/kg/injection, schedule: Q04DX003 (ip), vehicle: other 97 % of control | endpoint: mean survival time, dose: 400.0 mg/kg/injection, schedule: Q04DX003 (ip), vehicle: other 103 % of control

O=C1/C(=N/O)Cc2ccccc21
inactive: endpoint: mean survival time, dose: 12.5 mg/kg/injection, schedule: Q01DX009 (ip), vehicle: saline with Tween-80 97 % of control

CC(C)(C)OC(=O)C(CCC(=O)O)NC(=O)OCc1ccccc1 (centres undefined)
inactive: [10] 99 % of control | [11] 97 % of control | [12] 100 % of control

CC1(C)Cc2ccccc2O1
inactive: [1] 104 % of control | [2] 91 % of control

Cc1ccc(S(=O)(=O)N(C)c2cc([N+](=O)[O-])ccc2Br)cc1
inactive: [5] 95 % of control | [6] 103 % of control | [19] 114 % of control

O=[N+]([O-])O
inactive: [13] 86 % of control | [1] 86 % of control

O=c1[nH]c2ncnc(N=Nc3ncnc4[nH]c(=O)[nH]c34)c2[nH]1
inactive: endpoint: mean survival time, dose: 12.5 mg/kg/injection, schedule: Q01DX005 (ip), vehicle: distilled water + Tween-80 98 % of control | endpoint: mean survival time, dose: 25.0 mg/kg/injection, schedule: Q01DX005 (ip), vehicle: distilled water + Tween-80 89 % of control | endpoint: mean survival time, dose: 50.0 mg/kg/injection, schedule: Q01DX005 (ip), vehicle: distilled water + Tween-80 91 % of control | endpoint: mean survival time, dose: 100.0 mg/kg/injection, schedule: Q01DX005 (ip), vehicle: distilled water + Tween-80 94 % of control | endpoint: mean survival time, dose: 200.0 mg/kg/injection, schedule: Q01DX005 (ip), vehicle: distilled water + Tween-80 96 % of control

O=C(Nc1ccccc1)Nc1nnnc2ccccc12
inactive: [10] 101 % of control | [11] 90 % of control | [12] 101 % of control

CS(=O)(=O)OC1C(OC(=O)OCc2ccccc2)C2COC(O2)C1OC(=O)OCc1ccccc1 (centres undefined)
inactive: [1] 92 % of control | [2] 92 % of control | [3] 89 % of control

Cc1cc(NC(=O)Oc2ccc([N+](=O)[O-])cc2)ccc1S(=O)(=O)F
inactive: [18] 91 % of control and 98 % of control | [13] 87 % of control and 96 % of control | [7] 95 % of control | [5] 93 % of control and 100 % of control | [10] 94 % of control | [8] 101 % of control | [2] 91 % of control | [6] 93 % of control and 107 % of control | [11] 96 % of control | [9] 98 % of control | [19] 100 % of control and 103 % of control | [12] 102 % of control
